Target: Protein Tat (Human immunodeficiency virus type 1 group M subtype B (isolate HXB2)) (UniProt P04608)
Assay: inhibitors of Tat binding to TAR RNA, dose response, counter-screen for Vif-APOBEC3G degradation inhibitor project, biochemical, fluorescence polarization, FAM-labeled TAR RNA (AID 1117361)

Protein Tat (Human immunodeficiency virus type 1 group M subtype B (isolate HXB2)), sequence (P04608 whole entry, looked up): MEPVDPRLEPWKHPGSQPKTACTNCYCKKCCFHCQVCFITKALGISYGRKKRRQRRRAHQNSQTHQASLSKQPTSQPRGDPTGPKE

SMILES | IC50 [µM]
O=[N+]([O-])c1cc(-c2ccc(/C=N/c3nc4ccccn4c3-c3ccco3)o2)ccc1Cl | 28.7
Cc1oc(C)c2c(=O)ccc3c(c12)OC(N)=C(C#N)C3c1ccccc1 (stereo not drawn) | 81.9
Cc1cc(O)ccc1-c1cnc2ccccc2n1 | 80.8
CN(C)c1ccc(O)c2c1CC1CC3[C@@H](N(C)C)C(=O)C(C(N)=O)=C(O)[C@]3(O)C(=O)C1=C2O (stereo partly drawn) | 6.14
NC(=S)N=Nc1c(O)cc(O)c2[nH]c(=O)ccc12 | 37.2
CCN(CC)Cc1cc(O)c(CN(CC)CC)cc1O | 4.37
CC1CC(=O)c2c(cc3c(-c4c(O)cc(O)c5c(O)c6c(cc45)OC(C)CC6=O)c(O)cc(O)c3c2O)O1 (stereo not drawn) | 7.62
CCOC(=O)C1=C(N)n2c(s/c(=C/c3ccco3)c2=O)=C(C(=O)OC)C1c1ccco1 (stereo not drawn) | 9.78
CCCSC1=N/C(=C\c2ccc([N+](=O)[O-])o2)C(=O)S1 | 7.37
O=C(/C=C/c1ccco1)N(c1ccccn1)c1ccccn1 | 7.9
CCOC(=O)c1cc2cc(F)ccc2nc1C | 6.24
CC(=O)c1ccc2c(c1)C1C=CCC1C(C(=O)O)N2 (stereo not drawn) | 2.47
O=c1c(-c2cc3ccccc3o2)[n+]([O-])c2ccccc2n1OCc1ccccn1 | 34.5
CCOc1cccc(=O)c2c(C)oc(C)c12 | 22.6
O=C(Nc1ccccc1)C1=C(O)CC(c2ccco2)CC1=Nc1ccccc1 (stereo not drawn) | 70.3
C=C(C)C(=O)Nc1ccc2c(c1)OCCOCCOCCO2 | 21.6
O=c1c2cc(N3CCOCC3)ccc2[nH]c(=S)n1Cc1ccco1 | 38.7
COCCNC(=O)COC(=O)c1[nH]c(C)c(C(C)=O)c1C | 35.4
COc1ccc(Nc2ccc(OC)cc2)cc1 | 23.2
O=C(O)/C=C/C(=O)Nc1cccnc1 | 2.02
Cc1ccc(S(=O)(=O)Cn2nnnc2C(CC(C)C)N2CCN(C)CC2)cc1 (stereo not drawn) | 22.6
O=c1oc2c(O)c(O)cc3c(=O)oc4c(O)c(O)cc1c4c23 | 1.67
CN(C)c1ccc(N2C(=O)CSC2=S)cc1 | 54.6
CCN1C[C@@H]2[C@@H]3C(=O)N(Cc4ccccc4)C(=O)[C@@H]3[C@](C)(C(=O)OC)N2C1=NC1CCCCC1 | 79.8

SMILES | IC50 [µM]
Cc1ccc(C)n1-c1sccc1C(=O)O | 0.909
O=C1CCC/C(=N\NC(=O)c2ccc(COc3cccc4cccnc34)cc2)C1 | 82.3
COC/C=C/C1=CC2=CC(=O)C(C)(OC(=O)CCC(=O)OC)C(=O)C2=CO1 (stereo not drawn) | 8.1
CCCn1c(=N)n(CC(O)c2ccco2)c2ccccc21 (stereo not drawn) | 78.2
NCCc1c[nH]c2ccccc12 | 11.8
COc1ccccc1N1C(=O)NC(=O)/C(=C/c2ccc([N+](=O)[O-])s2)C1=O | 17.6
O=C1NC(=O)C(=Cc2ccc(SC3CCCCC3)o2)C(=O)N1 | 30.9
Oc1ccc(N=Cc2sc3ccccc3c2Cl)cc1 | 62.3
Cc1cccc(-n2nc3c(c2NC(=O)c2ccc(Br)o2)CSC3)c1 | 85.9
O=C1NC(=Nc2ccc(O)cc2)S/C1=C\C=C\c1ccco1 | 18.3
O=C1C=Cc2ccccc2C1=O | 30.5
O=C(N/N=C/C=C\c1ccco1)c1cccnc1 | 3.91
O=C1c2ccccc2C(=O)N1/N=C/c1ccc(O)c(O)c1O | 14.7
Cc1oc(-c2ccc(Cl)cc2)cc1-c1nn2c(-c3ccoc3C)nnc2s1 | 2.87
O=C(O)c1ccc2c(c1)[C@@H]1C=CC[C@@H]1[C@H](c1ccccn1)N2 | 7.1
O=c1cc2c(=O)oc3cc(O)c(O)oc3c2c(O)c1O | 12.3
Cc1cc(=O)c2c(O)c(O)ccc2o1 | 47.4
O=C1NC(=O)N(Cc2ccc(F)cc2)C(=O)/C1=C\C=C\c1ccco1 | 42.3
c1cn2cc(CSC3CCCCC3)nc2s1 | 63.8
O=[N+]([O-])c1ccc(Sc2nc3ccccc3o2)c([N+](=O)[O-])c1 | 16.4
CCCCC1=CC2=CC(=O)C(C)(OC(=O)C3CCCC3)C(=O)C2=CO1 (stereo not drawn) | 53.6
COCCn1nnnc1C(c1cc2cc(OC)c(OC)cc2[nH]c1=O)N1CCN(c2ccc(O)cc2)CC1 (stereo not drawn) | 94.3
Cc1ccc(N2C(=O)/C(=C\c3ccco3)SC2=S)cc1 | 36
S=c1[nH]nc(C2CC2)n1Cc1ccco1 | 45.9
